Laboratory results: patent US7074447B2 (Laboratories Miret, S.A., priority 2001, dated 2006)

Legend:
Assay in all cases: minimum inhibition concentration and Kull synergy index of LAE / potassium sorbate
Type in all cases: cell-based
[1] = system: Bacillus subtilis (CECT 356); settings: for SI, synergy index: <1 synergism, 1 addition, >1 antagonism
Experimental: The invention is now explained by a number of examples. In these examples LAE and sorbate alone and in a number of different combinations have been investigated against a number of bacterial preparations. For the analysis usually an internal method was used. Conditions and medium were Mueller Hinton broth (pH 7.4) or (pH 5.0) for bacteria, Sabouraud broth (pH 5.8) for yeast and Sabouraud medium for moulds. […] The interaction of the two components of the antimicrobial mixture is calculated according to the method described by Kull et al. (Kull […]. and Mayer R. L., Applied Microbiology, 1961; 6:538-541). According to this method the so-called synergy index is calculated according to the following formula: Synergy index […]. […] All indicated symbols indicate a particular concentration leading to a particular end point, in this case the inhibition of growth of Bacillus subtilis, so that the selected end point is in fact the minimal inhibitory concentration (mic).

[2] = system: Enterobacter aerogenes (ATCC 13048); settings: for SI, synergy index: <1 synergism, 1 addition, >1 antagonism
Experimental: (§1) The invention is now explained by a number of examples. In these examples LAE and sorbate alone and in a number of different combinations have been investigated against a number of bacterial preparations. For the analysis usually an internal method was used. Conditions and medium were Mueller Hinton broth (pH 7.4) or (pH 5.0) for bacteria, Sabouraud broth (pH 5.8) for yeast and Sabouraud medium for moulds. The interaction of the two components of the antimicrobial mixture is calculated according to the method described by Kull et al. (Kull […]. and Mayer R. L., Applied Microbiology, 1961; 6:538-541). According to this method the so-called synergy index is calculated according to the following formula: Synergy index […]. […] The same method was used as described for example 1. […] Again the effects of the components alone and in combination have been calculated using the same method as described at Example 1.

[3] = system: Escherichia coli (ATCC 8739); settings: for SI, synergy index: <1 synergism, 1 addition, >1 antagonism
Experimental: as §1

[4] = system: Citrobacter intermedium (CECT 401); settings: for SI, synergy index: <1 synergism, 1 addition, >1 antagonism
Experimental: as §1

[5] = system: Penicillium camemberti (CECT 2267); settings: for SI, synergy index: <1 synergism, 1 addition, >1 antagonism
Experimental: as §1

[6] = system: Cladosporium cladosporioides (ATCC 16022); settings: for SI, synergy index: <1 synergism, 1 addition, >1 antagonism
Experimental: as §1

[7] = system: Candida albicans (ATCC 10231); settings: for SI, synergy index: <1 synergism, 1 addition, >1 antagonism
Experimental: as §1, with “Conditions and medium were Mueller Hinton broth (pH 7.4) or (pH 5.0) for bacteria, Sabouraud broth (pH 5.8) for yeast and Sabouraud medium for moulds.” left out

[8] = system: Staphylococcus aureus (ATCC 6538); settings: for SI, synergy index: <1 synergism, 1 addition, >1 antagonism
Experimental: (§2) The invention is now explained by a number of examples. In these examples LAE and sorbate alone and in a number of different combinations have been investigated against a number of bacterial preparations. For the analysis usually an internal method was used. Conditions and medium were Mueller Hinton broth (pH 7.4) or (pH 5.0) for bacteria, Sabouraud broth (pH 5.8) for yeast and Sabouraud medium for moulds. The interaction of the two components of the antimicrobial mixture is calculated according to the method described by Kull et al. (Kull […]. and Mayer R. L., Applied Microbiology, 1961; 6:538-541). According to this method the so-called synergy index is calculated according to the following formula: Synergy index […]. […] Again the effects of the components alone and in combination have been calculated using the same method as described at Example 1.

[9] = system: Bacillus megaterium (CECT 44); settings: pH 7.4, aqueous solutions
Experimental: as §2

[10] = pH 7.4, propylene glycol solutions

C/C=C/C=C/C(=O)[O-].[K+] [potassium sorbate]
1024.00: Qs, minimum inhibition concentration of potassium sorbate in the mixture ([1]; pH 5.0) | Qs, minimum inhibition concentration of potassium sorbate in the mixture ([2]; pH 5.0) | Qs, minimum inhibition concentration of potassium sorbate in the mixture ([3]; pH 5.0) | Qs, minimum inhibition concentration of potassium sorbate in the mixture ([4]; pH 5.0) | Qs, minimum inhibition concentration of potassium sorbate in the mixture ([5]; pH 5.0) | Qs, minimum inhibition concentration of potassium sorbate in the mixture ([6]; pH 5.0) | Qs, minimum inhibition concentration of potassium sorbate in the mixture ([7]; pH 5.0) | Qs, minimum inhibition concentration of potassium sorbate in the mixture ([7]; pH 7.4, aqueous solutions) | Qs, minimum inhibition concentration of potassium sorbate in the mixture ([8]; pH 5.0)
1024: QS, minimum inhibition concentration of potassium sorbate as single antimicrobial ([1]; pH 5.0) | QS, minimum inhibition concentration of potassium sorbate as single antimicrobial [1, 10] | Qs, minimum inhibition concentration of potassium sorbate in the mixture [1, 10] | QS, minimum inhibition concentration of potassium sorbate as single antimicrobial ([2]; pH 5.0) | QS, minimum inhibition concentration of potassium sorbate as single antimicrobial ([3]; pH 5.0) | QS, minimum inhibition concentration of potassium sorbate as single antimicrobial ([5]; pH 5.0) | QS, minimum inhibition concentration of potassium sorbate as single antimicrobial ([6]; pH 5.0) | QS, minimum inhibition concentration of potassium sorbate as single antimicrobial ([6]; pH 7.4, aqueous solutions) | Qs, minimum inhibition concentration of potassium sorbate in the mixture ([6]; pH 7.4, aqueous solutions) | QS, minimum inhibition concentration of potassium sorbate as single antimicrobial ([7]; pH 5.0) | QS, minimum inhibition concentration of potassium sorbate as single antimicrobial ([7]; pH 7.4, aqueous solutions) | QS, minimum inhibition concentration of potassium sorbate as single antimicrobial ([8]; pH 5.0) | QS, minimum inhibition concentration of potassium sorbate as single antimicrobial [9] | Qs, minimum inhibition concentration of potassium sorbate in the mixture [9]
1.00: Qs/QS ([1]; pH 5.0) | SI, synergy index ([1]; pH 5.0) | Qs/QS [1, 10] | SI, synergy index [1, 10] | Qs/QS ([2]; pH 5.0) | SI, synergy index ([2]; pH 5.0) | Qs/QS ([2]; pH 7.4, aqueous solutions) | SI, synergy index ([2]; pH 7.4, aqueous solutions) | Qs/QS ([3]; pH 5.0) | SI, synergy index ([3]; pH 5.0) | Qs/QS ([3]; pH 7.4, aqueous solutions) | SI, synergy index ([3]; pH 7.4, aqueous solutions) | Qs/QS ([4]; pH 5.0) | SI, synergy index ([4]; pH 5.0) | Qs/QS ([4]; pH 7.4, aqueous solutions) | SI, synergy index ([4]; pH 7.4, aqueous solutions) | Qs/QS ([5]; pH 5.0) | SI, synergy index ([5]; pH 5.0) | Qs/QS ([5]; pH 7.4, aqueous solutions) | SI, synergy index ([5]; pH 7.4, aqueous solutions) | Qs/QS ([6]; pH 5.0) | SI, synergy index ([6]; pH 5.0) | Qs/QS ([6]; pH 7.4, aqueous solutions) | SI, synergy index ([6]; pH 7.4, aqueous solutions) | Qs/QS ([7]; pH 5.0) | SI, synergy index ([7]; pH 5.0) | Qs/QS ([7]; pH 7.4, aqueous solutions) | SI, synergy index ([7]; pH 7.4, aqueous solutions) | Qs/QS ([8]; pH 5.0) | SI, synergy index ([8]; pH 5.0) | Qs/QS ([8]; pH 7.4, aqueous solutions) | SI, synergy index ([8]; pH 7.4, aqueous solutions) | Qs/QS [9] | SI, synergy index ([9]; <1 synergism, 1 addition, >1 antagonism)
512: QS, minimum inhibition concentration of potassium sorbate as single antimicrobial ([4]; pH 5.0)
1536: QS, minimum inhibition concentration of potassium sorbate as single antimicrobial ([2]; pH 7.4, aqueous solutions) | Qs, minimum inhibition concentration of potassium sorbate in the mixture ([2]; pH 7.4, aqueous solutions) | QS, minimum inhibition concentration of potassium sorbate as single antimicrobial ([3]; pH 7.4, aqueous solutions) | Qs, minimum inhibition concentration of potassium sorbate in the mixture ([3]; pH 7.4, aqueous solutions) | QS, minimum inhibition concentration of potassium sorbate as single antimicrobial ([4]; pH 7.4, aqueous solutions) | Qs, minimum inhibition concentration of potassium sorbate in the mixture ([4]; pH 7.4, aqueous solutions) | QS, minimum inhibition concentration of potassium sorbate as single antimicrobial ([8]; pH 7.4, aqueous solutions) | Qs, minimum inhibition concentration of potassium sorbate in the mixture ([8]; pH 7.4, aqueous solutions)
0.00: Qlae/QLAE ([6]; pH 7.4, aqueous solutions)
0.0: Qlae/QLAE ([8]; pH 7.4, aqueous solutions)
2048: QS, minimum inhibition concentration of potassium sorbate as single antimicrobial ([5]; pH 7.4, aqueous solutions) | Qs, minimum inhibition concentration of potassium sorbate in the mixture ([5]; pH 7.4, aqueous solutions)
0: Qlae, minimum inhibition concentration of LAE in the mixture ([1]; pH 5.0) | Qlae/QLAE ([1]; pH 5.0) | Qlae, minimum inhibition concentration of LAE in the mixture [1, 10] | Qlae/QLAE [1, 10] | Qlae, minimum inhibition concentration of LAE in the mixture ([2]; pH 5.0) | Qlae/QLAE ([2]; pH 5.0) | Qlae, minimum inhibition concentration of LAE in the mixture ([2]; pH 7.4, aqueous solutions) | Qlae, minimum inhibition concentration of LAE in the mixture ([3]; pH 5.0) | Qlae/QLAE ([3]; pH 5.0) | Qlae, minimum inhibition concentration of LAE in the mixture ([3]; pH 7.4, aqueous solutions) | Qlae/QLAE ([3]; pH 7.4, aqueous solutions) | Qlae, minimum inhibition concentration of LAE in the mixture ([4]; pH 5.0) | Qlae/QLAE ([4]; pH 5.0) | Qlae, minimum inhibition concentration of LAE in the mixture ([4]; pH 7.4, aqueous solutions) | Qlae/QLAE ([4]; pH 7.4, aqueous solutions) | Qlae, minimum inhibition concentration of LAE in the mixture ([5]; pH 5.0) | Qlae/QLAE ([5]; pH 5.0) | Qlae, minimum inhibition concentration of LAE in the mixture ([5]; pH 7.4, aqueous solutions) | Qlae/QLAE ([5]; pH 7.4, aqueous solutions) | Qlae, minimum inhibition concentration of LAE in the mixture ([6]; pH 5.0) | Qlae/QLAE ([6]; pH 5.0) | Qlae, minimum inhibition concentration of LAE in the mixture ([6]; pH 7.4, aqueous solutions) | Qlae, minimum inhibition concentration of LAE in the mixture ([7]; pH 5.0) | Qlae/QLAE ([7]; pH 5.0) | Qlae, minimum inhibition concentration of LAE in the mixture ([7]; pH 7.4, aqueous solutions) | Qlae/QLAE ([7]; pH 7.4, aqueous solutions) | Qlae, minimum inhibition concentration of LAE in the mixture ([8]; pH 5.0) | Qlae/QLAE ([8]; pH 5.0) | Qlae, minimum inhibition concentration of LAE in the mixture ([8]; pH 7.4, aqueous solutions) | Qlae, minimum inhibition concentration of LAE in the mixture [9] | Qlae/QLAE [9]
